Test results published in the supplement of paper PMC12317010.
Counter-ions that a name gives are not always drawn.

Assay: collision cross section in nitrogen (drift tube, single-field); higher = larger gas-phase ion size
[1] = ion type: [M+H], ion source: APCI, ion mode: Positive
[2] = ion type: [M+H], ion source: ESI, ion mode: Positive
[3] = ion type: [M-H], ion source: ESI, ion mode: Negative
[4] = ion type: [M+], ion source: APCI, ion mode: Positive
[5] = ion type: [M+Na], ion source: ESI, ion mode: Positive
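Further: chemical standards at 10 µM analysed by drift tube IMS-QTOF MS in about 3.95 torr nitrogen, mean of duplicate injections differing ≤1%, mass error below 10 ppm.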

Compound | collision cross section in nitrogen [1] | collision cross section in nitrogen [2] | collision cross section in nitrogen [3] | collision cross section in nitrogen [4] | collision cross section in nitrogen [5]
Nc1ccnc(=O)[nH]1 [Cytosine] | 117.3 Å² | 118.8 Å² | – | – | –
O=C1c2ccccc2C(=O)C1c1ccc2ccccc2n1 [D & C Yellow 11] | – | 158.6 Å² | 163.8 Å² | – | –
O=C1OC2(c3cc(Br)c(O)c(Br)c3Oc3c2cc(Br)c(O)c3Br)c2c(Cl)c(Cl)c(Cl)c(Cl)c21 [D&C Red 27] | – | – | 226.8 Å² | – | –
Cc1ccc(Nc2ccc(O)c3c2C(=O)c2ccccc2C3=O)cc1 [D&C Violet 2] | 176.9 Å² | 176.7 Å² | – | 174 Å² | –
CCN(CC)C(=O)c1cccc(C)c1 [DEET] | 143.5 Å² | 143.6 Å² | – | – | 160.2 Å²
CN(C)NC(=O)CCC(=O)O [Daminozide] | – | – | 135.2 Å² | – | 142.5 Å²
O=C1CN(N=Cc2ccc(-c3ccc([N+](=O)[O-])cc3)o2)C(=O)N1 [Dantrolene sodium] | – | – | 180 Å² | – | –
Nc1ccc(S(=O)(=O)c2ccc(N)cc2)cc1 [Dapsone] | 155.5 Å² | 155 Å² | 157.9 Å² | – | 170.7 Å²
CC(C)(C)c1cc(/C=C2\SC(=N)NC2=O)cc(C(C)(C)C)c1O [Darbufelone mesylate] | 188.3 Å² | 188 Å² | 186.1 Å² | – | 207.3 Å²
Cc1ccc2nc(-c3ccc(N)cc3)sc2c1 [Dehydrothio-4-toluidine] | 153.9 Å² | 153.9 Å² | 155.8 Å² | 153.5 Å² | –
CCS(=O)(=O)CCSP(=O)(OC)OC [Demeton-S-methyl sulfone] | 144.5 Å² | 145 Å² | – | – | 155.1 Å²
CCOP(=O)(OCC)SCCSCC [Demeton-S] | – | – | – | – | 162.4 Å²
CC(C)Nc1nc(N)nc(Cl)n1 [Desethylatrazine] | 139.3 Å² | 139.4 Å² | – | – | –

Second part, the compound after the results:

collision cross section in nitrogen [1] | collision cross section in nitrogen [2] | collision cross section in nitrogen [3] | collision cross section in nitrogen [4] | collision cross section in nitrogen [5] | Compound
– | – | 132.3 Å² | – | 143.4 Å² | OC[C@@H](O)[C@@H](O)[C@H](O)[C@@H](O)CO [D-Glucitol]
– | – | 133.2 Å² | – | – | O=C(O)[C@H](O)[C@@H](O)[C@H](O)[C@H](O)CO [D-Gluconic acid]
– | – | 171.4 Å² | – | 175.3 Å² | OC[C@@H](O)[C@@H](O[C@@H]1O[C@H](CO)[C@H](O)[C@H](O)[C@H]1O)[C@H](O)[C@@H](O)CO [D-Lactitol monohydrate]
– | – | 132.5 Å² | – | 141.5 Å² | OC[C@@H](O)[C@@H](O)[C@H](O)[C@H](O)CO [D-Mannitol]
– | – | 144.6 Å² | – | – | O=C(O)CCCCCCCCC(=O)O [Decanedioic acid]
– | – | 149.5 Å² | – | – | CCCCCCCCCC(=O)O [Decanoic acid]
– | – | 155 Å² | – | – | CCCCCCCCCCOC(C)=O [Decyl acetate]
– | – | 192.6 Å² | – | 187.7 Å² | CCCCCCCCCCO[C@@H]1O[C@H](CO)[C@@H](O)[C@H](O)[C@H]1O [Decyl beta-D-glucopyranoside]
205.2 Å² | 204.8 Å² | 206.7 Å² | – | 213.4 Å² | CC(=O)OCC(=O)[C@@]12N=C(C)O[C@@H]1C[C@H]1[C@@H]3CCC4=CC(=O)C=C[C@]4(C)[C@H]3[C@@H](O)C[C@@]12C [Deflazacort]
188.9 Å² | – | – | – | – | CC(C)c1ccc2c(c1)CC[C@H]1[C@](C)(CN)CCC[C@]21C [Dehydroabietylamine acetate]
– | 188.3 Å² | – | – | – | CC(C)c1ccc2c(c1)CC[C@H]1[C@](C)(CN)CCC[C@]21C [Dehydroabietylamine]
133.5 Å² | 133.7 Å² | – | – | – | CCNc1nc(N)nc(Cl)n1 [Deisopropylatrazine]
